PubChem BioAssay (NCI)
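A five-concentration, 48-hour dose response in 96-well plates underlies each endpoint, interpolated linearly between surrounding concentrations. At the GI50, growth is halved. TGI: concentration producing complete growth inhibition.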

Assays:
Assay in all cases: NCI tumour cell line growth inhibition, 48 h
[1] = test system: CCRF-CEM leukemia
[2] = test system: OVCAR-4 ovarian
[3] = test system: DU-145 prostate
[4] = test system: RXF 393 renal
[5] = test system: SF-295 CNS
[6] = test system: SK-MEL-2 melanoma
[7] = test system: SK-OV-3 ovarian
[8] = test system: HL-60(TB) leukemia
[9] = test system: UACC-257 melanoma
[10] = test system: NCI-H226 lung

OC(CNC1CCCC1)Cn1c2ccccc2c2ccccc21 (stereo not given)
GI50 [1]: > 100 µM
TGI [1]: > 100 µM
GI50 [2]: > 100 µM
TGI [2]: > 100 µM
GI50 [3]: 82.3 µM
TGI [3]: > 100 µM
GI50 [4]: 16.3 µM
TGI [4]: 52.5 µM
GI50 [5]: 23.7 µM
TGI [5]: 73.5 µM
GI50 [6]: 25.1 µM
TGI [6]: 68.6 µM
GI50 [7]: 20.4 µM
TGI [7]: 43.4 µM
GI50 [8]: > 100 µM
TGI [8]: > 100 µM
GI50 [9]: > 100 µM
TGI [9]: > 100 µM
GI50 [10]: 32.1 µM
TGI [10]: > 100 µM

N#Cc1nc2cc(F)c(F)cc2nc1-c1ccc(Cl)cc1
GI50 [1]: 0.181 µM
TGI [1]: 3.12 µM
GI50 [2]: > 62 µM
TGI [2]: > 100 µM
GI50 [3]: 22.4 µM
TGI [3]: > 82.6 µM
GI50 [4]: 6.23 µM
TGI [4]: 18.3 µM
GI50 [5]: 12.2 µM
TGI [5]: 38.9 µM
GI50 [6]: 8.41 µM
TGI [6]: 25.5 µM
GI50 [7]: > 46.7 µM
TGI [7]: > 88 µM
GI50 [8]: 3.43 µM
TGI [8]: > 28.2 µM
GI50 [9]: 22.1 µM
TGI [9]: > 58.3 µM
GI50 [10]: 3.44 µM
TGI [10]: > 63.2 µM

COc1ccc2c(c1)OC(N)=C(C#N)C2c1ccc(F)cc1 (stereo not given)
GI50 [1]: 2.31 µM
TGI [1]: > 100 µM
GI50 [2]: 6.59 µM
TGI [2]: > 100 µM
GI50 [3]: 3.05 µM
TGI [3]: > 100 µM
GI50 [4]: 2.28 µM
TGI [4]: 17.8 µM
GI50 [5]: 1.96 µM
TGI [5]: 37.2 µM
GI50 [6]: 0.633 µM
TGI [6]: > 100 µM
GI50 [7]: 2.94 µM
TGI [7]: 66.3 µM
GI50 [8]: 0.45 µM
TGI [8]: 7.15 µM
GI50 [9]: 24.5 µM
TGI [9]: > 100 µM
GI50 [10]: 20.7 µM
TGI [10]: > 100 µM

S=C(Nc1ccccc1)N(Cc1ccccc1)c1ccccc1
TGI [1]: > 100 µM
TGI [2]: 93.6 µM
TGI [3]: 24.7 µM
TGI [4]: 85 µM
TGI [5]: > 100 µM
TGI [6]: 41.2 µM
TGI [7]: > 100 µM
TGI [8]: > 100 µM
TGI [9]: 54.6 µM
TGI [10]: > 100 µM

O=C(CCCCCCC(=O)Nc1ccc2c(c1)/C(=C/c1ccc[nH]1)C(=O)N2)NO
GI50 [1]: 0.0923 µM
TGI [1]: > 100 µM
GI50 [2]: 1.27 µM
TGI [2]: 52 µM
GI50 [3]: 0.969 µM
TGI [3]: 41.6 µM
GI50 [4]: 0.487 µM
TGI [4]: 3.66 µM
GI50 [5]: 1.3 µM
TGI [5]: 7.51 µM
GI50 [6]: 0.851 µM
TGI [6]: 7.13 µM
GI50 [7]: 0.341 µM
TGI [7]: 3.85 µM
GI50 [8]: 0.464 µM
TGI [8]: > 100 µM
GI50 [9]: 0.353 µM
TGI [9]: 5.44 µM
GI50 [10]: 2.28 µM
TGI [10]: 12 µM

NCCCCN(Cc1nc2ccccc2[nH]1)[C@H]1CCCc2cccnc21
GI50 [1]: 7.06 µM
TGI [1]: 56.3 µM
GI50 [2]: 10.6 µM
TGI [2]: > 82.7 µM
GI50 [3]: 29.2 µM
TGI [3]: > 100 µM
GI50 [4]: 13.5 µM
TGI [4]: 66.8 µM
GI50 [5]: 12.8 µM
TGI [5]: 30.7 µM
GI50 [6]: 16.7 µM
TGI [6]: 45.1 µM
GI50 [7]: 18.6 µM
TGI [7]: > 86.5 µM
GI50 [8]: 5.34 µM
TGI [8]: 26.7 µM
GI50 [9]: 15.3 µM
TGI [9]: 31.4 µM
GI50 [10]: 12.5 µM
TGI [10]: 44.4 µM

COCCNC(=O)c1ccc(-c2nc3ccc4[nH]ncc4c3c3c2CCCC3)cc1
GI50 [1]: 2.44 µM
TGI [1]: 16.6 µM
GI50 [2]: 4.59 µM
TGI [2]: 72.9 µM
GI50 [3]: 2.12 µM
TGI [3]: > 100 µM
GI50 [4]: 0.498 µM
TGI [4]: 3.7 µM
GI50 [5]: 2.7 µM
TGI [5]: 47.7 µM
GI50 [6]: 2.16 µM
TGI [6]: 7.97 µM
GI50 [7]: 0.905 µM
TGI [7]: 5.59 µM
GI50 [8]: 2.43 µM
TGI [8]: 7.33 µM
GI50 [9]: 5.38 µM
TGI [9]: > 100 µM
GI50 [10]: 2.47 µM
TGI [10]: > 100 µM

COc1cc(/C=C/C(=O)c2c(C)n([O-])c3ccc(Cl)cc3[n+]2=O)cc(OC)c1OC
GI50 [1]: > 100 µM
TGI [1]: > 100 µM
GI50 [2]: > 100 µM
TGI [2]: > 100 µM
GI50 [3]: 21.7 µM
TGI [3]: > 100 µM
GI50 [4]: 10.2 µM
TGI [4]: 30.2 µM
GI50 [5]: 35 µM
TGI [5]: > 100 µM
GI50 [6]: > 100 µM
TGI [6]: > 100 µM
GI50 [7]: 34.6 µM
TGI [7]: > 100 µM
GI50 [8]: > 100 µM
TGI [8]: > 100 µM
GI50 [9]: 49.6 µM
TGI [9]: > 100 µM
GI50 [10]: 65.2 µM
TGI [10]: > 100 µM

C/C=C/C=C\C1OC(O)([C@H](CC)C(=O)NC/C=C/C=C(\C)[C@H](OC)C(C)C2OC(\C=C/C=C/C=C(\C)C(=O)c3c(O)ccn(C)c3=O)[C@H](O)[C@@H]2O)C(O)C(O)C1(C)C (stereo not given in full)
TGI [1]: > 100 µM
TGI [2]: > 100 µM
TGI [3]: > 100 µM
TGI [4]: > 100 µM
TGI [5]: > 100 µM
TGI [6]: > 100 µM
TGI [7]: > 100 µM
TGI [8]: > 100 µM
TGI [9]: > 100 µM
TGI [10]: > 100 µM

OC(CNc1ccnc2cc(Cl)ccc12)CNC1CCCCC1 (stereo not given)
GI50 [1]: 7.29 µM
TGI [1]: 42.4 µM
GI50 [2]: 3.6 µM
TGI [2]: 23.8 µM
GI50 [3]: 13.9 µM
TGI [3]: 28.2 µM
GI50 [4]: 2.5 µM
TGI [4]: 8.72 µM
GI50 [5]: 2.13 µM
TGI [5]: 4.9 µM
GI50 [6]: 2.28 µM
TGI [6]: 4.86 µM
GI50 [7]: 10.5 µM
TGI [7]: 32.8 µM
GI50 [8]: 10.9 µM
TGI [8]: 28.7 µM
GI50 [9]: 1.78 µM
TGI [9]: 3.33 µM
GI50 [10]: 12.9 µM
TGI [10]: 34.9 µM

CC(C)CCc1c(Cl)nc(Cl)nc1Cl
TGI [1]: > 100 µM
TGI [2]: 44.2 µM
TGI [3]: 31.1 µM
TGI [4]: 11.5 µM
TGI [5]: 34.4 µM
TGI [6]: > 100 µM
TGI [7]: 37.6 µM
TGI [8]: > 100 µM
TGI [9]: 34 µM
TGI [10]: 14.6 µM

O=C(N/N=C\c1ccc(N(CCCl)CCCl)cc1Cl)c1cccnc1
GI50 [1]: 14.5 µM
TGI [1]: > 90.6 µM
GI50 [2]: 5.28 µM
TGI [2]: 38.5 µM
GI50 [3]: 16.2 µM
TGI [3]: 59.6 µM
GI50 [4]: 14.2 µM
TGI [4]: 51.9 µM
GI50 [5]: 0.565 µM
TGI [5]: 9.97 µM
GI50 [6]: 14.3 µM
TGI [6]: 53.3 µM
GI50 [7]: 26.6 µM
TGI [7]: > 100 µM
GI50 [8]: 7.5 µM
TGI [8]: 36.5 µM
GI50 [9]: 1.08 µM
TGI [9]: 3.48 µM
GI50 [10]: 0.127 µM
TGI [10]: 0.604 µM

CCOC1C=CCCO1 (stereo not given)
TGI [1]: > 100 µM
TGI [2]: > 100 µM
TGI [3]: > 100 µM
TGI [4]: > 100 µM
TGI [5]: > 100 µM
TGI [6]: > 100 µM
TGI [7]: > 100 µM
TGI [8]: > 100 µM
TGI [9]: > 100 µM
TGI [10]: > 100 µM
